Here are results for 16 compounds from ChEMBL document CHEMBL1201862, “PubChem BioAssay data set” (2004).

In test [1] the target is Paired box protein Pax-8 (Homo sapiens, UniProt Q06710). Put plainly: inhibitors of PAX8-driven TPO luciferase reporter, dose response, RMG-I cells, cherry-pick (AID 687027).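 Also: luciferase reporter driven by Pax8 target thyroperoxidase promoter measured by SteadyGlo luminescence.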 It is filed as functional, cell-based.
The nature of test [2]: IGROV1 ovarian cancer cell cytotoxicity, dose response, PAX8 inhibitor project, plate reader, dry powder samples (AID 743043). Type of test: functional, cell-based. Conditions: IGROV-1.
Test [3] in a line: NIH:OVCAR-3 ovarian cancer cell cytotoxicity, dose response, PAX8 inhibitor project, plate reader, dry powder samples (AID 743044). It is filed as functional, cell-based.
A short description of test [4]: human group III sPLA2 inhibitors, dose response, biochemical, QFRET, IC50 (AID 743457).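 Also: green fluorescence rise as the enzyme cleaves BODIPY PC-A2 in liposomes; potency for inhibition of the enzyme.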
The nature of test [5]: CRF-BP/CRF-R2 complex antagonists, dose response, cell-based, uHTS hits, 384-well (AID 651639). It is filed as functional, Homo sapiens. As to conditions: read-out: IC50_Mean.
In test [6] the target is T1, Corticotropin-releasing factor receptor 2/Corticotropin-releasing factor-binding protein (Homo sapiens, UniProt P24387+Q13324).
T1 sequence (Q13324 whole entry): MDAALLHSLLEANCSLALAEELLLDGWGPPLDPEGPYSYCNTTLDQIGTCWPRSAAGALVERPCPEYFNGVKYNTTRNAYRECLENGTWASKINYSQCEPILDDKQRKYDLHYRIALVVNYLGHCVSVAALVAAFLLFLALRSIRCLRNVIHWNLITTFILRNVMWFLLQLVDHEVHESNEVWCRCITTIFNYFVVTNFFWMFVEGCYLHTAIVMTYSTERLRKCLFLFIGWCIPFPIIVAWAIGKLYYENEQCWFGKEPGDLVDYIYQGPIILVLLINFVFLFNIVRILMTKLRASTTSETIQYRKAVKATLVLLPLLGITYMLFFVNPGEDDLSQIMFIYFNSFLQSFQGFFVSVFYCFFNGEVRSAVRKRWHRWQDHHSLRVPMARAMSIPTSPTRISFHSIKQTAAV
T1 sequence (P24387 whole entry): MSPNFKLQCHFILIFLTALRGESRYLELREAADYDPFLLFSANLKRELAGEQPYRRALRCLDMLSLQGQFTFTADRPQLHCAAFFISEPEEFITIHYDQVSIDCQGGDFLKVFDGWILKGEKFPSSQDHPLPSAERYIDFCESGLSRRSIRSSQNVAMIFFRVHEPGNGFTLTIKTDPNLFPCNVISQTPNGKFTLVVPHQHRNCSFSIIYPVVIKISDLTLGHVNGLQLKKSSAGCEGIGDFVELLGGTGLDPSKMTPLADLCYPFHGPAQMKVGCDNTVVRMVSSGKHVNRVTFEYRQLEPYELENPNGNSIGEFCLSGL
Put plainly: activators of CRF receptor 2 with binding protein – uHTS hits, confirmation (AID 602473). It is filed as functional. As to conditions: read-out: EC50_Mean.

Test [7] concerns the target T1, Corticotropin-releasing factor receptor 2/Corticotropin-releasing factor-binding protein. Put plainly: Dose Response confirmation of uHTS hits for small molecule antagonists of the CRF-binding protein and CRF-R2 receptor complex. As to conditions: read-out: IC50_Mean. It is filed as functional.
Test [8] can be described thus: cytotoxicity in OVCAR8 ovarian cancer cells, dose response, PAX8 project, cell-based, plate reader, dry powder samples (AID 743197). It is filed as functional. As to conditions: OVCAR-8.
The nature of test [9]: non-specific cell cytotoxicity, dose response, cytotoxicity control for PAX8 inhibitor project, plate reader, dry powder samples (AID 743021). Type of test: functional, cell-based.
The target of test [10] is T2, Trace amine-associated receptor 1 (Homo sapiens, UniProt Q96RJ0).
T2 sequence (Q96RJ0 whole entry): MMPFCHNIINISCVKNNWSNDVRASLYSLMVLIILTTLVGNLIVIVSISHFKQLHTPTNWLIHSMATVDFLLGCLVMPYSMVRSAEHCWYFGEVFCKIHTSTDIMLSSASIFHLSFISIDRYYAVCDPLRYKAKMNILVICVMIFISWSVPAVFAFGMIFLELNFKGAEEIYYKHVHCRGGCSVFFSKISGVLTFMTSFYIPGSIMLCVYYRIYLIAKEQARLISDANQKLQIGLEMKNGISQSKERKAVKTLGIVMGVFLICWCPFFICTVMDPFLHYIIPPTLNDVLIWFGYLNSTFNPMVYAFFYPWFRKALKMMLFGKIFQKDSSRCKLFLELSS
Put plainly: Fluorescence-based cell-based high throughput dose response assay to identify agonists of the human trace amine associated receptor 1 (TAAR1). Type of test: functional.

For test [11], the target named is T2, Trace amine-associated receptor 1. As to the kind of experiment: Counterscreen for agonists of the human trace amine associated receptor 1 (hTAAR1): Fluorescence-based cell-based high throughput dose response assay to identify hTAAR1 agonist that also desensitize TAAR1 receptor response. It is filed as functional.
The nature of test [12]: cells. Type of test: functional, cell-based.
A short description of test [13]: cells. It is filed as functional, cell-based. The source holds these as a separate data set.
In test [14] the target is Fructose-bisphosphate aldolase (Mycobacterium tuberculosis, UniProt P9WQA3). As to the kind of experiment: Fluorescence-based biochemical high throughput dose response assay for inhibitors of the fructose-bisphosphate aldolase (FBA) of M. tuberculosis. It is filed as functional.
Test [15] can be described thus: Luminescence Cell-Based Dose Confirmation HTS to Identify Activators of 5'UTR Stem-Loop Driven Alpha-Synuclein mRNA Translation in H4 Neuroglioblastoma Cells. [Related pubchem assays: 1829 (Project Summary), 1814 (Primary HTS)]. Type of test: functional.
Test [16] is described as follows: cells. As to conditions: HEK293.
Test [17] has as its system H4. As to the kind of experiment: Luminescence Cell-Based Dose Response HTS to Identify Activators of 5'UTR Stem-Loop Driven Prion Protein mRNA Translation in H4 Neuroglioblastoma Cells. [Related pubchem assays: 1829 (Project Summary), 1814 (Primary HTS)]. Type of test: functional. As to conditions: Homo sapiens.
The nature of test [18]: cells. As to conditions: A549.
Test [19] in a line: Luminescence Cell-Based Dose Response HTS to Identify Activators of Luciferase Translation or Activity in H4 […] Cells. [Related pubchem assays: 1829 (Project Summary), 1814 (Primary HTS)]. Type of test: functional.
Test [20] has as its target T3, Disintegrin and metalloproteinase domain-containing protein 17 (Homo sapiens, UniProt P78536). As to the kind of experiment: ADAM17 protease inhibitors, dose response, counter-screen for ADAM10 exosite inhibitor project, biochemical, quenched FRET substrate (AID 743253).
Test [21] can be described thus: ADAM10 inhibitors, peptide cleavage, dose response, biochemical, QFRET (AID 743254).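 Also: ADAM10 enzyme with the DM2 quenched FRET peptide as substrate; EDANS fluorescence gain as the protease cuts the substrate; inhibitor potency against ADAM10 proteolytic activity.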
Test [22] has as its target fMet-Leu-Phe receptor (Homo sapiens, UniProt P21462). As to the kind of experiment: FPR ligands, dose response (AID 519). It is filed as functional.
Test [23] deals with Steroidogenic factor 1 (Homo sapiens, UniProt Q13285). As to the kind of experiment: Counterscreen for inverse agonists of the liver receptor homolog-1 (LRH-1; NR5A2): Luminescence-based cell-based high throughput dose response assay to identify inverse agonists of the Steroidogenic Factor 1 Nuclear Receptor (SF1; NR5A1). Type of test: functional.
A short description of test [24]: StAR promoter reporter inhibition counter-screen, dose response, counter-screen for LRH-1 inverse agonist project, cell-based, luminescence, luciferase reporter (AID 651969). Type of test: functional.
The target of test [25] is Nuclear receptor subfamily 5 group A member 2 (Homo sapiens, UniProt O00482). It is filed as functional, cell-based.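 Also: HEK293T cells transfected with LRH-1 and a StAR promoter luciferase reporter; potency for inhibitors that lower LRH-1 driven reporter light.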
Test [26] addresses T4, Protein skinhead-1 (Caenorhabditis elegans, UniProt P34707).
T4 sequence (P34707 whole entry): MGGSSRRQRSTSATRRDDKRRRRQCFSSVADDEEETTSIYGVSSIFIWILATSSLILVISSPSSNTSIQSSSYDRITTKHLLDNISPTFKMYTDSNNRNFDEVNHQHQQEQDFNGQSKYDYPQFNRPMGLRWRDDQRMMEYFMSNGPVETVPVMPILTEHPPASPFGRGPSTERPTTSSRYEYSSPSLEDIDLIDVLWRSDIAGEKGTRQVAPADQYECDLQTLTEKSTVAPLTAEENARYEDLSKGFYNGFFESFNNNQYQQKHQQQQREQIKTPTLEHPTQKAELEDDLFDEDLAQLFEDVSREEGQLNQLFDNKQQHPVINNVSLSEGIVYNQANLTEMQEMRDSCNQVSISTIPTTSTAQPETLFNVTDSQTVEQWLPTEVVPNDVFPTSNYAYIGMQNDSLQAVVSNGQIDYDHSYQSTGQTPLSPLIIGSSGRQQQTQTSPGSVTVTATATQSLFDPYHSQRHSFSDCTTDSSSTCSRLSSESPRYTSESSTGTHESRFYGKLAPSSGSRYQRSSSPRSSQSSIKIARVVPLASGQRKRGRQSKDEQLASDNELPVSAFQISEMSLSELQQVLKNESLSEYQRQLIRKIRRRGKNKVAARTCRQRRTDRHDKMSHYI
Type of test: functional.

For test [27], the target named is Mitogen-activated protein kinase 10 (Homo sapiens, UniProt P53779). As to the kind of experiment: Dose response biochemical screening assay for inhibitors of c-Jun N-Terminal Kinase 3 (JNK3). [Related pubchem assays: 746 ].
Test [28] can be described thus: T. cruzi growth inhibition in host cells, dose response, cell-based, plate reader, dry powder, set 2 (AID 652275). Type of test: functional.
Test [29] concerns the target T3, Disintegrin and metalloproteinase domain-containing protein 17. Put plainly: exosite inhibitors of ADAM17, dose response, biochemical (AID 743260).
Test [30] can be described thus: ADAM10 protease inhibitors, dose response, selectivity assay for ADAM17 exosite inhibitor project, biochemical, FRET peptide substrate, recombinant human ADAM10 (AID 743259).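 Also: ADAM10 enzyme cleaving a FRET peptide substrate.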

The source made the active and inactive calls. A value given as a limit tells only on which side of the number the result lay.

T3 sequence (P78536 whole entry, the tested form may be a part): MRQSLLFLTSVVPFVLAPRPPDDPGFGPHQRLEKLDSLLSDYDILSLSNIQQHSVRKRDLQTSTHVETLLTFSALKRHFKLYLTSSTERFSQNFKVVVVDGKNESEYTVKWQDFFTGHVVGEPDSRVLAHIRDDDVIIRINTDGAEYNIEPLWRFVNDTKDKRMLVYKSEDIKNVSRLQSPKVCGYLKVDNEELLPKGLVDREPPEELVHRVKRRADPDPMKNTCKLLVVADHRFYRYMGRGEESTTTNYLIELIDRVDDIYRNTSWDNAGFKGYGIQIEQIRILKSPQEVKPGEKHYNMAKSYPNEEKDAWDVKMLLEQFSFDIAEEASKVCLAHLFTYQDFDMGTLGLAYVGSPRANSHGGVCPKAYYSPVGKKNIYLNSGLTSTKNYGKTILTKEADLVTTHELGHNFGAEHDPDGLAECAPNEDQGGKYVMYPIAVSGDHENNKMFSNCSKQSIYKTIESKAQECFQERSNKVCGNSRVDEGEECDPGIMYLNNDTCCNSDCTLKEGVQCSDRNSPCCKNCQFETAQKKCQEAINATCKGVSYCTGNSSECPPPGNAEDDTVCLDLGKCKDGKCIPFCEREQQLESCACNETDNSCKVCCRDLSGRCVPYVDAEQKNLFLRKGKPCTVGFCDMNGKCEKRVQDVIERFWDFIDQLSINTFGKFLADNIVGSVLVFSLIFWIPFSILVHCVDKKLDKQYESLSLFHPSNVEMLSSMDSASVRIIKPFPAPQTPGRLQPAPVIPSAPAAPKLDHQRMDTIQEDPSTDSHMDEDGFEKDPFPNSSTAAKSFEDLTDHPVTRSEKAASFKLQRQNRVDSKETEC
Sequence of Nuclear receptor subfamily 5 group A member 2 (O00482 whole entry): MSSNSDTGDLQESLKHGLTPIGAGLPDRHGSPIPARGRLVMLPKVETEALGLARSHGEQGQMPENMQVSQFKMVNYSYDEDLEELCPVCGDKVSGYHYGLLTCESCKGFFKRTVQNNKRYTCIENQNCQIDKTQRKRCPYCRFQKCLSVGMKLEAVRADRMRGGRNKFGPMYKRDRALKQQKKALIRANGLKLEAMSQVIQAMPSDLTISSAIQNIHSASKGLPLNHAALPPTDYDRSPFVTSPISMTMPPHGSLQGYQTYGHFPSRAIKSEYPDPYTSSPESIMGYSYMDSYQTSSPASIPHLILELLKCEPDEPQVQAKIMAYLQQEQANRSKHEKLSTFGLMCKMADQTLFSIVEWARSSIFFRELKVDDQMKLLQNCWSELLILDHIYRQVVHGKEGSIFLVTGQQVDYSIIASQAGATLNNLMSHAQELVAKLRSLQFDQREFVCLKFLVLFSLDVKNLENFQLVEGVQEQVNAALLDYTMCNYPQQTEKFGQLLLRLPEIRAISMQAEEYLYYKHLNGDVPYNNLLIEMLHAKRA
Sequence of Steroidogenic factor 1 (Q13285 whole entry): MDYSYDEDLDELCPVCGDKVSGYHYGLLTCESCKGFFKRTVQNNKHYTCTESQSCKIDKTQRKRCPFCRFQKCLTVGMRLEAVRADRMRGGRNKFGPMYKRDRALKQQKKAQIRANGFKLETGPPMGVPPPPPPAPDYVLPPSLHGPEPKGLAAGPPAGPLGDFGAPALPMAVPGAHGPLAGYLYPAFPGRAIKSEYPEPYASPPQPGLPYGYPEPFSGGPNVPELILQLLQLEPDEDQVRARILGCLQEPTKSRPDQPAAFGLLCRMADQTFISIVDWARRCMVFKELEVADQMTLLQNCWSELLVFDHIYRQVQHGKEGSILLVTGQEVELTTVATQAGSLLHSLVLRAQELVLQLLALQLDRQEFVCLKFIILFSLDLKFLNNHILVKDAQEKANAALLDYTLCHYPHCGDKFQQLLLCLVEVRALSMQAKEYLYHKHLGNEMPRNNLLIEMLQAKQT
Sequence of Fructose-bisphosphate aldolase (P9WQA3 whole entry): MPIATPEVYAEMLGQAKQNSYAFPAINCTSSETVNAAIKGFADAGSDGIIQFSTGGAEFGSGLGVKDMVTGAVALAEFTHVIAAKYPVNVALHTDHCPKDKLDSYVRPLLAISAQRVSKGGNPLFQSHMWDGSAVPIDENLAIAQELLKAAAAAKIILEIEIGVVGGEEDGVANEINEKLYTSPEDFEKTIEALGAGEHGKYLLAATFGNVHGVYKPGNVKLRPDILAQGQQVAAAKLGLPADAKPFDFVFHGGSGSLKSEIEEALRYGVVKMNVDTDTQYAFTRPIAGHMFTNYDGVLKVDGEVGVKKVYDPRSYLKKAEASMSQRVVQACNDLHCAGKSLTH
Sequence of Paired box protein Pax-8 (Q06710 whole entry): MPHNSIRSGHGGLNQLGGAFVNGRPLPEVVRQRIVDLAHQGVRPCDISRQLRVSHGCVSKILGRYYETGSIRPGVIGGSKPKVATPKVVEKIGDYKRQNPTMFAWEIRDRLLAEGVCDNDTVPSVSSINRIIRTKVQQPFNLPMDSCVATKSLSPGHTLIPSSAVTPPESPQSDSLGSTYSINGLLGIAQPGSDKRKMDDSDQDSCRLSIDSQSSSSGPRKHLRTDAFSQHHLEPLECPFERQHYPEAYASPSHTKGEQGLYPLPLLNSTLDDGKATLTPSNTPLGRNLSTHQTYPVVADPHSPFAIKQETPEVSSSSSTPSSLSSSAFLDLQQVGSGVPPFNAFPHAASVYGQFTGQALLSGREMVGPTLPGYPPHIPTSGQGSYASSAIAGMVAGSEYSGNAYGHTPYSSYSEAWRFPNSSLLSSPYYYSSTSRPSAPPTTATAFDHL
Sequence of Mitogen-activated protein kinase 10 (P53779 whole entry): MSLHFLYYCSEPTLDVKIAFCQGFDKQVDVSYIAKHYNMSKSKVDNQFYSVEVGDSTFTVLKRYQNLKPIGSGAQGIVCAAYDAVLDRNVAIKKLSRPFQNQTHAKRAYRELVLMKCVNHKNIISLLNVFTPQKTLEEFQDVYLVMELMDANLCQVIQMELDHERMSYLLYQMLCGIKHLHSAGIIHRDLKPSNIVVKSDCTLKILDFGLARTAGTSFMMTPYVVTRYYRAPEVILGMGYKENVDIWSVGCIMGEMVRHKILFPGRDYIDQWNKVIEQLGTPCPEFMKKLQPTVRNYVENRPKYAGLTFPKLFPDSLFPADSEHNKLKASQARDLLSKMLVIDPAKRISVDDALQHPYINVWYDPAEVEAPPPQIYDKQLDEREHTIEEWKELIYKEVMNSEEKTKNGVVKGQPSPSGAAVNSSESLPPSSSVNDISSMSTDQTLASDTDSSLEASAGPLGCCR
Sequence of fMet-Leu-Phe receptor (P21462 whole entry): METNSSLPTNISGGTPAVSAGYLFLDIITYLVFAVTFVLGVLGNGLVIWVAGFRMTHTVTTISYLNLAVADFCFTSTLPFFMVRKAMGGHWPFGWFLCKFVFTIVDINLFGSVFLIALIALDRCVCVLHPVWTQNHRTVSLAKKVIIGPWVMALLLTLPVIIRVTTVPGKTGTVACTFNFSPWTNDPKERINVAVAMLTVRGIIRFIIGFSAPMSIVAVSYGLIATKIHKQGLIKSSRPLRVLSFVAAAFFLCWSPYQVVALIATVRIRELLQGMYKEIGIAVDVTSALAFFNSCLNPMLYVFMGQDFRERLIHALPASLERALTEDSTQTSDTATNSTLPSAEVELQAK

On to `C[C@@H]1CN([C@@H](C)CO)C(=O)Cc2cc(NC(=O)Nc3ccc4c(c3)OCO4)ccc2O[C@H]1CN(C)CC1CCCCC1`, for which the AC50 was 9.15 µM (active) in [1], 58.1 µM (active) in [2] and 37 µM (active) in test [3].
In the case of `Cn1cccc1CC(=O)NN=C(S)Nc1ccccc1Cl`, in [4], the IC50 is > 122 µM (inactive).
For `O=S(=O)(Nc1cc(Cl)ccc1-n1cncn1)c1ccccc1Cl`, the IC50 in [5] is > 20 µM (inactive); in test [7], 32.6 µM (active). For the same compound, the EC50 in test [6] is > 53 µM (inactive).
In the case of `C[C@H](CO)N1C[C@H](C)[C@H](CN(C)Cc2ccc(C(F)(F)F)cc2)OCCCC[C@H](C)Oc2ccc(NS(=O)(=O)c3ccccc3)cc2C1=O`, the concentration at half-maximal activity (AC50) is 48.9 µM (active) in test [8]; 9.01 µM (active) in [1]; 55.8 µM (active) in test [2]; 55.7 µM (active) in test [9]; 45 µM (active) in test [3].
Consider `CC(=O)c1ccc(NC(=O)Nc2ccccc2)cc1`, for which the EC50 in [10] was 3.14 µM (active); in [12], > 29.9 µM (inactive). Moreover, the figures for the IC50 in test [11] and in [13] were > 3.32 µM (active) and 29.8 µM (inactive), respectively.
As for `OCc1ccc2c(c1)c(-c1ccc3c(c1)OCCO3)c(-c1ccccc1)n2-c1ccccc1`, the IC50 in test [14] is 0.913 µM (active).
As to `COC(=O)c1cc(=O)n(Cc2ccc3c(c2)OCO3)/c(=N/c2ccc(F)c(Cl)c2)s1`, the EC50 was 10.4 µM (active) in test [15], > 120 µM (not active) in test [17] and > 120 µM (not active) in test [19]. Further, the results for the concentration at half-maximal activity (AC50) in test [16] and in [18] were 20 µM (active) and 23.3 µM (active), respectively.
Take `Cc1cc(O)nc(Nc2cccc(F)c2)n1`: the EC50 in test [10] was 8.54 µM (active); in test [12], > 29.9 µM (inactive). The IC50 in [11] and in [13] was > 29.9 µM (inactive) in each case.
In the case of `COc1cccc(CN2C(=O)C(C)N(C(=O)c3ccccc3)c3ccccc32)c1` (stereo unspecified), the IC50 in test [5] was 9.26 µM (active); in test [7], 26.9 µM (active). Moreover, the EC50 in test [6] was > 53 µM (inactive).
As to `C=CCC[C@@H](Cc1ccc(F)cc1)C(=O)OC[C@@H](NC(=O)[C@H](CC=C)CC(=O)N(CCO)Cc1ccccc1)c1ccccc1`, the IC50 in test [20] was > 69.5 µM (inactive); in test [21], 27.4 µM (inactive).
Turning to `COc1ccc(C(=O)C2=C(O)C(=O)N(CCN3CCOCC3)C2c2ccc(C)cc2)cc1` (stereo unspecified), the Ki in test [22] was > 66.7 µM (inactive).
With `O=C(COc1ccc2c3c(c(=O)oc2c1)CCC3)NCc1ccncc1`, the IC50 in test [23], in test [24] and in test [25] was 35.9 µM (inactive) throughout.
For `O=C(Nc1ccc(-c2nc3cccnc3s2)cc1)c1ccco1`, the values for the IC50 in test [14], in [26] and in test [27] were 1.32 µM (active), 83.1 µM (inactive) and > 93.1 µM (not active), respectively.
As to `CN(C)C(=O)c1ccc(-c2ccc([C@H]3[C@H](CO)N4CCCCN(Cc5cncnc5)C[C@@H]34)cc2)cc1`, the half-maximal activity concentration (AC50) in [28] is 0.472 µM (active).
Regarding `O=C(CSc1ccc(Cl)cc1Cl)N1CCC(c2nc3ccccc3s2)CC1`, the IC50 in test [20] is > 69.5 µM (inactive); in test [29], > 69.5 µM (inactive); in test [21] it was 22.1 µM (inactive); in [30], 18.8 µM (inactive).
`Cc1cc(Br)ccc1NC(=O)CN1C(=O)C2CC=CCC2C1=O` (stereo unspecified): the IC50 in test [23] is 0.105 µM (active); in test [24], 35.9 µM (inactive); in [25], 0.169 µM (active).
